The text below walks through data of US9060517B2, “Nitrogenated heterocyclic compound and agricultural or horticultural fungicide” (Nippon Soda Co., Ltd., priority 2011, dated 2015).

A word on the pest or weed control: it is the degree to which the test organism was suppressed or injured, in per cent. Low values mean weak suppression, high ones strong suppression.

What all share (type): in vivo
The test system of experiment [1] is apple scab pathogen (Venturia inaequalis). As to the kind of experiment: Apple scab control test (100 ppm spray on apple seedlings). To be noted: 336 h; apple seedlings (Ralls Janet), emulsion sprayed at 100 ppm, inoculated with Venturia inaequalis, 2 weeks. The method, then:
Ralls Janet, leaf stage: 3 to 4) cultivated in unglazed pots and allowed to air-dry at room temperature. Subsequently, the seedlings were inoculated with conidiospores of apple scab pathogen (Venturia inaequalis) followed by holding for 2 weeks indoors at 20° C. and high humidity using a 12 hour light/dark cycle. The appearance of lesions on the leaves was compared with untreated seedlings to determine control effects.

Experiment [2] has as its system cucumber gray mold pathogen (Botrytis cinerea). As to the kind of experiment: Cucumber gray mold control test. The note with it: 96 h, cucumber seedlings (Sagami Hanjiro), emulsion sprayed at 100 ppm, 4 days. How it is done:
Sagami Hanjiro, leaf stage: cotyledon) cultivated in unglazed pots, and allowed to air-dry at room temperature. Subsequently, the seedlings were drip-inoculated with conidiospore suspensions of cucumber gray mold pathogen (Botrytis cinerea) followed by holding for 4 days in a dark room at 20° C. and high humidity. The appearance of lesions on the leaves was compared with untreated seedlings to determine control effects.

Experiment [3] concerns rice blast pathogen (Magnaporthe grisea). To be noted: rice seedlings (Koshihikari), 400 ppm dropped onto water surface, inoculated two days later.
Experiment [4] shares this test system. To be noted: rice seedlings (Koshihikari), 400 ppm dropped onto water surface, inoculated 14 days later.

SMILES strings stand for the structures. Read-outs that look alike come from different tables or passages of the source. Where only a bound is given, the exact number is not on record here.

Consider `CC(=O)C(C)(C)c1c(F)cccc1Oc1cnc2c(F)cccc2n1` [Compound 1-10, 3-[2-fluoro-6-(5-fluoro-quinoxalin-2-yloxy)-phenyl]-3-methyl-butan-2-one], for which the pest or weed control at 100 ppm in experiment [1] and in experiment [2] was no less than 75% in each case. With `CC(C)OC(=O)C(C)(C)c1ccccc1Oc1cnc2c(F)c(F)ccc2n1` [Compound 1-24], the control effects result in experiment [3] is given as “B (Control value of 40% to less than 60%)”. Take `COC(C)(C)c1ncccc1Oc1nc2ccc(F)c(F)c2nc1C` [Compound 1-35, 5,6-difluoro-2-[2-(1-methoxy-1-methyl-ethyl)-pyridin-3-yloxy]-3-methyl-quinoxaline]: the pest or weed control at 100 ppm in experiment [1] and in experiment [2] was no less than 75% in each case. `Cc1nc2c(F)cccc2cc1Oc1cccnc1C(C)(C)O` [a-7, 2-[(8-fluoro-2-methylquinolin-3-yloxy)pyridine-2-yl]propan-2-ol]: the pest or weed control at 100 ppm in experiment [1] and in experiment [2] was no less than 75% each time. With `CC(C)(O)c1ncccc1Oc1cnc2c(F)cccc2c1` [a-8], the control effects entry in experiment [4] is “B (Control value of 40% to less than 60%)”. With `CC(=O)c1ncccc1Oc1cc2cccc(F)c2nc1C` [a-9, 1-[3-(2-methyl-8-fluoroquinolin-3-yloxy)-pyridin-2-yl]-ethanone], the pest or weed control at 100 ppm in experiment [1] is no less than 75%.

For the compound `CC(C)(C#N)c1ncccc1Oc1cnc2c(F)cccc2c1` [a-11, 2-[3-(8-fluoro-quinolin-3-yloxy)-pyridin-2-yl]-2-methylpropionitrile], the pest or weed control at 100 ppm in experiment [1] and in experiment [2] was no less than 75% throughout. For the compound `CCOC(=O)C(C)(C)c1ncccc1Oc1cnc2c(F)cccc2c1` [a-12, 2-[3-(8-fluoro-quinolin-3-yloxy)-pyridin-2-yl]-2-methylpropionic acid ethyl ester], the pest or weed control at 100 ppm in experiment [1] and in experiment [2] was no less than 75% each time. On to `CC(=O)C(C)(C)c1ncccc1Oc1cnc2c(F)cccc2c1` [a-15, 3-[3-(8-fluoro-quinolin-3-yloxy)-pyridin-2-yl]-3-methyl-butan-2-one], for which the pest or weed control at 100 ppm in experiment [1] and in experiment [2] was no less than 75% in each case. As to `COC(C)(C)c1ncccc1Oc1cc2cccc(F)c2nc1C` [a-16, 3-[2-(2-methoxy-2-propyl)pyridin-3-yloxy]-8-fluoro-2-methylquinoline], the pest or weed control at 100 ppm in experiment [1] and in experiment [2] was no less than 75% in each case. `CC(C)(C(=O)O)c1ncccc1Oc1cnc2c(F)cccc2c1` [a-19, 2-[3-(8-fluoro-quinolin-3-yloxy)-pyridin-2-yl]-2-methylpropionic acid]: the pest or weed control at 100 ppm in experiment [1] was no less than 75%. Consider `CC(C)(C=O)c1ncccc1Oc1cnc2c(F)cccc2c1` [a-21, 2-[3-(8-fluoro-quinolin-3-yloxy)-pyridin-2-yl]-2-methyl-propioaldehyde], for which the pest or weed control at 100 ppm in experiment [1] and in experiment [2] was no less than 75% each time. In experiment [1], `CCNC(=O)C(C)(C)c1ncccc1Oc1cnc2c(F)cccc2c1` [a-55, N-ethyl-2-[3-(8-fluoro-quinolin-3-yloxy)-pyridin-2-yl]-isobutylamide] showed a pest or weed control at 100 ppm of no less than 75%. Turning to `CCOC(C)(C)c1ncccc1Oc1cc2cccc(F)c2nc1C` [a-56, 3-[2-(2-ethoxy-2-propyl)pyridin-3-yloxy]-8-fluoro-2-methylquinoline], the pest or weed control at 100 ppm in experiment [1] and in experiment [2] was no less than 75% in each case.
